Data set [1] in a line: Stability in storage of thermal transfer recorded images. The note with it: 50° C., 50 hours. As to the method:
The recorded images obtained as described above were left standing in an atmosphere kept at 50° C. for 50 hours and, after the standing, were examined to determine the presence or absence of change caused on the images owing to the standing.
Ink compositions were prepared, transfer sheets produced, and transfer recording carried out by following the procedure of Example 89 while using the dye shown in Table 11 instead. The recorded images were tested for lightfastness and then for stability in storage in the same manner as in Example 89.
Ink compositions were prepared, transfer sheets produced, and transfer recording carried out by following the procedure of Example 89 while using the dyes shown in Table 12 instead. The recorded images were tested for lightfastness and then for stability in storage in the same manner as in Example 89.

A short description of data set [2]: Visible absorption spectrum (λmax, ε). The following applies: for ε: in M-1 cm-1 (unit assumed). Type of data set: physicochemical.
A short description of data set [3]: Solubility in toluene and methyl ethyl ketone, three-point scale. The class given is physicochemical. From the text:
In these tables, the solubility is rated on the three-point scale, wherein Δ stands for a solubility of less than 1% by weight, .largecircle. for a solubility in the approximate range of 1 to 3% by weight, and .circleincircle. for a solubility of not less than 3% by weight.

A further data set in a line: Color tone of the dye. The following applies: Tables 1-9. The class given is physicochemical.

The structures appear in SMILES notation.

`CCCCCCCCOc1c(Nc2cccc(C(=O)OCC)c2)c(Nc2cccc(C(=O)OCC)c2)c(F)c2c1C(=O)c1c(O)ccc(O)c1C2=O` [(156)]: in data set [1], the Stability in storage result is reported as “Good”.

As for `CCCCOc1c(Nc2c(C)cccc2C(=O)OCC)c(Nc2c(C)cccc2C(=O)OCC)c(F)c2c1C(=O)c1c(O)ccc(O)c1C2=O` [(162)], the Stability in storage result in data set [1] was “Good”.

Compound `O=C1c2c(O)ccc(O)c2C(=O)c2c(F)c(Nc3c(Cl)cccc3Cl)c(F)c(F)c21` [(22)] came in with a λ max in data set [2] (in chloroform) of 521 nm. Moreover, in data set [2] (in chloroform, at λ max), the ε turned out to be 9470. Further, in data set [3], the “Solubility in methyl ethyl ketone” value is reported as “.largecircle. (a solubility in the approximate range of 1 to 3% by weight)”. Further, the Solubility in toluene result in data set [3] (in toluene) is listed as “.circleincircle. (a solubility of not less than 3% by weight)”. Further, in the data set “Color tone of the dye”, the Color tone result was “Magenta”. The Stability in storage result in data set [1] was “Good”.

Take `CCCCCCCCOc1c(F)c2c(c(F)c1Nc1ccc(C(=O)OCC)cc1)C(=O)c1c(O)ccc(O)c1C2=O` [(33)]: in data set [1], the Stability in storage entry is listed as “Good”.

Compound `CCCCCCCCOc1c(F)c2c(c(F)c1Nc1c(CC)cccc1CC)C(=O)c1c(O)ccc(O)c1C2=O` [(51)] returned a λ max in data set [2] (in chloroform) of 563 nm. The compound also returned a ε in data set [2] (in chloroform, at λ max) of 11400. In addition, the “Solubility in methyl ethyl ketone” value in data set [3] is “.circleincircle. (a solubility of not less than 3% by weight)”. In data set [3] (in toluene), the Solubility in toluene result was “.circleincircle. (a solubility of not less than 3% by weight)”. The Color tone entry in the data set “Color tone of the dye” is listed as “Purple”. In addition, in data set [1], the Stability in storage result is listed as “Good”.

In data set [2] (in chloroform), `CCCCCCCCOc1c(F)c2c(c(F)c1Nc1ccc(C#N)cc1)C(=O)c1c(O)ccc(O)c1C2=O` [(45)] displayed a λ max of 524 nm. In data set [2] (in chloroform, at λ max), this compound gave a ε of 15400. In addition, the “Solubility in methyl ethyl ketone” value in data set [3] is “.circleincircle. (a solubility of not less than 3% by weight)”. In addition, the Solubility in toluene entry in data set [3] (in toluene) is reported as “.circleincircle. (a solubility of not less than 3% by weight)”. The Color tone result in the data set “Color tone of the dye” was “Magenta”. Moreover, the Stability in storage result in data set [1] was “Good”.

On to `CCc1ccc(Cl)c(CC)c1Nc1c(F)c2c(c(F)c1Nc1c(CC)ccc(Cl)c1CC)C(=O)c1c(O)ccc(O)c1C2=O` [(141)], for which the Stability in storage entry in data set [1] is “Good”.

As to `CCCCOc1c(Nc2c(CC)ccc(Cl)c2CC)c(Nc2c(CC)ccc(Cl)c2CC)c(F)c2c1C(=O)c1c(O)ccc(O)c1C2=O` [(160)], the Stability in storage entry in data set [1] was “Good”.

Regarding `CCCCOc1c(Nc2c(CC)cccc2CC)c(Nc2c(CC)cccc2CC)c(F)c2c1C(=O)c1c(O)ccc(O)c1C2=O` [(158)], the Stability in storage result in data set [1] was “Good”.

As for `CCCCCCCCOc1c(Nc2c(Cl)cccc2Cl)c(Nc2c(Cl)cccc2Cl)c(F)c2c1C(=O)c1c(O)ccc(O)c1C2=O` [(183)], the Stability in storage result in data set [1] is on record as “Good”.

For `O=C1c2ccc(Nc3c(Cl)cccc3Cl)cc2C(=O)c2c(O)ccc(O)c21` [(102)], in data set [2] (in toluene), the λ max came to 516 nm and the ε was found to be 15600. Besides, the Solubility result in data set [3] (in toluene) is on record as “Not less than 3 % by weight”. The Stability in storage result in data set [1] is recorded as “Good”.

As to `CCCCOc1c(Nc2c(C(C)C)cccc2C(C)C)c(Nc2c(C(C)C)cccc2C(C)C)c(F)c2c1C(=O)c1c(O)ccc(O)c1C2=O` [(159)], in data set [1], the Stability in storage entry was “Good”.

`CCCCCCCCOc1c(F)c2c(c(F)c1Nc1ccc([N+](=O)[O-])cc1)C(=O)c1c(O)ccc(O)c1C2=O` [(41)]: the λ max in data set [2] (in chloroform) worked out at 524 nm. Further, in data set [2] (in chloroform, at λ max), the ε is on record as 13200. Moreover, the “Solubility in methyl ethyl ketone” value in data set [3] is given as “.circleincircle. (a solubility of not less than 3% by weight)”. Also, the Solubility in toluene result in data set [3] (in toluene) is reported as “.circleincircle. (a solubility of not less than 3% by weight)”. Besides, in the data set “Color tone of the dye”, the Color tone entry is listed as “Magenta”. Moreover, in data set [1], the Stability in storage entry was “Good”.

On to `CCc1cccc(CC)c1Nc1c(F)c2c(c(F)c1Nc1c(CC)cccc1CC)C(=O)c1c(O)ccc(O)c1C2=O` [(137)], for which the λ max in data set [2] (in chloroform) came to 657 nm. This compound also came in with a ε in data set [2] (in chloroform, at λ max) of 3000. Also, in data set [3], the “Solubility in methyl ethyl ketone” value is reported as “.largecircle. (a solubility in the approximate range of 1 to 3% by weight)”. The Solubility in toluene entry in data set [3] (in toluene) is reported as “.circleincircle. (a solubility of not less than 3% by weight)”. In addition, the Color tone entry in the data set “Color tone of the dye” is “Cyan”. Also, the Stability in storage result in data set [1] is “Good”.

On to `CCCCCCCCOc1c(F)c2c(c(F)c1Nc1ccc(C(=O)OCCCC)cc1)C(=O)c1c(O)ccc(O)c1C2=O` [(36)], for which the λ max in data set [2] (in chloroform) turned out to be 534 nm. The compound also had a ε in data set [2] (in chloroform, at λ max) of 12700. Also, the “Solubility in methyl ethyl ketone” value in data set [3] was “.circleincircle. (a solubility of not less than 3% by weight)”. For the same compound, in data set [3] (in toluene), the Solubility in toluene result was “.circleincircle. (a solubility of not less than 3% by weight)”. Further, in “Color tone of the dye”, the Color tone result is “Magenta”. In data set [1], the Stability in storage result is “Good”.

For `COc1ccccc1Nc1c(F)c2c(c(F)c1Nc1ccccc1OC)C(=O)c1c(O)ccc(O)c1C2=O` [(131)], the λ max in data set [2] (in chloroform) turned out to be 661 nm. In data set [2] (in chloroform, at λ max), this compound registered a ε of 15600. In data set [3], the “Solubility in methyl ethyl ketone” value is given as “.largecircle. (a solubility in the approximate range of 1 to 3% by weight)”. For the same compound, the Solubility in toluene result in data set [3] (in toluene) is given as “.largecircle. (a solubility in the approximate range of 1 to 3% by weight)”. Further, the Color tone result in the data set “Color tone of the dye” was “Cyan”.

`CC(C)c1cccc(C(C)C)c1Nc1c(F)c2c(c(F)c1Nc1c(C(C)C)cccc1C(C)C)C(=O)c1c(O)ccc(O)c1C2=O` [(139)]: the λ max in data set [2] (in chloroform) was found to be 660 nm. Moreover, in data set [2] (in chloroform, at λ max), the ε is 26000. The “Solubility in methyl ethyl ketone” value in data set [3] is listed as “.largecircle. (a solubility in the approximate range of 1 to 3% by weight)”. Moreover, in data set [3] (in toluene), the Solubility in toluene result is given as “.circleincircle. (a solubility of not less than 3% by weight)”. For the same compound, the Color tone entry in “Color tone of the dye” is on record as “Cyan”. Moreover, the Stability in storage entry in data set [1] is reported as “Good”.

Source of the values: patent US5608091A, “Quinizarin compound, method for production thereof, and use therefor” (Nippon Shokubai Co., Ltd., priority 1993, dated 1997).
